Data set [1] can be described thus: Protein binding in rat lung homogenate at 10 uM incubated for 4 hrs by LC/MS/MS analysis. The class given is ADME, tissue-based. The following applies: read-out: PB (converted).
Data set [2] concerns the target T1, Mitogen-activated protein kinase 14 (Homo sapiens, UniProt Q16539). Nature of the data set: Displacement of SKF-86002 from human inactivated p38alpha assessed as dissociation half life incubated for 2 hrs by fluorescence based analysis.
The nature of data set [3]: Terminal half life in Sprague-Dawley rat lung homogenate at 0.03 mg/kg, IT measured after 24 hrs by LC/MS/MS analysis. The class given is ADME, organism-based. As to conditions: read-out: beta t1/2.
Data set [4] in a line: Cmax in Sprague-Dawley rat lung homogenate at 0.03 mg/kg, IT measured after 0.8 hrs by LC/MS/MS analysis. More on the design: time 0.8 hrs, dose 0.03 mg/kg, route it. The class given is ADME, organism-based.
Data set [5] deals with Rattus norvegicus. Nature of the data set: Antiinflammatory activity against LPS-induced Sprague-Dawley rat inflammatory model assessed as inhibition of neutrophil cells release in BALF at 1 mg/kg, IT measured after 1 hr relative to control. The format is functional.
Data set [6] in a line: Drug uptake in Sprague-Dawley rat lung homogenate at 0.03 mg/kg, IT measured after 24 hrs by LC/MS/MS analysis. The format is ADME, organism-based. As to conditions: in vivo, other.
In data set [7] the target is Mitogen-activated protein kinase 11 (Homo sapiens, UniProt Q15759). The data set is described as follows: Inhibition of recombinant human full length His-tagged p38beta expressed in baculovirus expression system preincubated for 2 hrs followed by ATP addition and measured after 1 hr by Alpha screen assay. A general note: Bead proximity is the source of the signal in Alpha formats.
Mitogen-activated protein kinase 11, sequence (Q15759 whole entry): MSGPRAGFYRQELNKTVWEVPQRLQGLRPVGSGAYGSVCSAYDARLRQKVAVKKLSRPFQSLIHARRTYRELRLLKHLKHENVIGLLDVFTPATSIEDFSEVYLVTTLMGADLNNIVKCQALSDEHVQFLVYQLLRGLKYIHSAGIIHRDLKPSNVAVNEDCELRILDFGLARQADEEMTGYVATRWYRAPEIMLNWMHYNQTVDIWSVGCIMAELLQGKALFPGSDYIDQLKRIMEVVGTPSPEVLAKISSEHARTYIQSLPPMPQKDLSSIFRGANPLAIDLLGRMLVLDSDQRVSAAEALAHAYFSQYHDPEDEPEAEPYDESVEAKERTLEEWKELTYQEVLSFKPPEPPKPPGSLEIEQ

The nature of data set [8]: Selectivity index, ratio of drug concentration in Sprague-Dawley rat lung homogenate to IC50 for human p38alpha. The following applies: tissue homogenate. The class given is tissue-based.
Data set [9] can be described thus: Protein binding in rat plasma at 10 uM incubated for 4 hrs by LC/MS/MS analysis. The format is ADME, cell-free. The following applies: read-out: PPB (converted).
A short description of data set [10]: Inhibition of LPS-stimulated TNFalpha release in human PBMC cells preincubated for 1 hr followed by LPS stimulation and measured after 18 hrs. The class given is functional, cell-based.
Data set [11] addresses T2, Mitogen-activated protein kinase 13 (Homo sapiens, UniProt O15264).
T2 sequence (O15264 whole entry): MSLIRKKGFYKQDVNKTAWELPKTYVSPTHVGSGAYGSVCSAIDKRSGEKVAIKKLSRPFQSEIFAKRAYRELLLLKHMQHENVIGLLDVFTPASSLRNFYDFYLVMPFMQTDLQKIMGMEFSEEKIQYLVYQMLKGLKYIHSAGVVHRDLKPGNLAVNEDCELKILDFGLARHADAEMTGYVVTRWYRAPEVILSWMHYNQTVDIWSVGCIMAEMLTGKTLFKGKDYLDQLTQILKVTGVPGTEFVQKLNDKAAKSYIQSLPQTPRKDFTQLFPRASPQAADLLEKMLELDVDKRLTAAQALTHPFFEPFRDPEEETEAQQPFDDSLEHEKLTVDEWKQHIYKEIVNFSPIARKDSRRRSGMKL
The data set is described as follows: Inhibition of recombinant human full length His-tagged p38delta expressed in baculovirus expression system preincubated for 2 hrs followed by ATP addition and measured after 1 hr by Alpha screen assay.

The target in data set [12] is T1, Mitogen-activated protein kinase 14. Nature of the data set: Inhibition of human recombinant full length GST-tagged p38alpha expressed in Escherichia coli preincubated for 2 hrs followed by ATP addition and measured after 1 hr by Alpha screen assay.
Data set [13] is described as follows: Cmax in Sprague-Dawley rat plasma at 0.03 mg/kg, IT measured after 0.8 hrs by LC/MS/MS analysis. The format is ADME, organism-based. More on the design: dose 0.03 mg/kg, time 0.8 hrs, route it.
The nature of data set [14]: Solubility of the compound at >=1 mg/ml measured after 30 mins by HPLC analysis. The format is physicochemical.
The nature of data set [15]: Protein binding in human plasma at 10 uM incubated for 4 hrs by LC/MS/MS analysis. The class given is ADME, cell-free. As to conditions: read-out: PPB.
Data set [16] has as its target T3, Mitogen-activated protein kinase 12 (Homo sapiens, UniProt P53778).
T3 sequence (P53778 whole entry): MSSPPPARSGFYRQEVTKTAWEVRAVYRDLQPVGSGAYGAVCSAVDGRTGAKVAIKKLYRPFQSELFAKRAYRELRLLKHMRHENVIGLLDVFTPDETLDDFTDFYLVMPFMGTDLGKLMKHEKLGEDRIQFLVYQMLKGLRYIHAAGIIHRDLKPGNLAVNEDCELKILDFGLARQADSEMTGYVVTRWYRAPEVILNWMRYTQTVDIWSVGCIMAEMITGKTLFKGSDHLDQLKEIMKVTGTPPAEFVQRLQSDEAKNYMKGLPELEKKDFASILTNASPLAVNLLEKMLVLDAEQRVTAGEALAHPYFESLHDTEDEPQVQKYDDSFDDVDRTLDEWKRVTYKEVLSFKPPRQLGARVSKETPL
The data set is described as follows: Inhibition of recombinant human full length His-tagged p38gamma expressed in baculovirus expression system preincubated for 2 hrs followed by ATP addition and measured after 1 hr by Alpha screen assay.

A short description of data set [17]: Drug concentration in Sprague-Dawley rat lung homogenate at 1 mg/kg, IT measured after 24 hrs by LC/MS/MS analysis. The class given is ADME, organism-based. As to conditions: read-out: Ct.
Data set [18] deals with Rattus norvegicus. Nature of the data set: Antiinflammatory activity against LPS-induced Sprague-Dawley rat inflammatory model assessed as inhibition of neutrophil cells release in BALF at 1 mg/kg, IT measured after 24 hrs relative to control. The class given is functional.
Data set [19] can be described thus: Metabolic stability in rat liver microsomes assessed as half life at 1 uM preincubated for 10 mins followed by NADPH addition and measured after 30 mins by LC/MS/MS analysis. The class given is ADME, Microsome. The following applies: time 40 min. Background: Liver microsomes are vesicles of endoplasmic reticulum, rich in cytochrome P450 enzymes.
Data set [20] in a line: Permeability across apical to basolateral side in human Caco-2 cells at 10 uM measured after 60 mins by LC/MS/MS analysis. The format is ADME, cell-based. The following applies: read-out: permeability.
The nature of data set [21]: Drug uptake in Sprague-Dawley rat lung homogenate at 0.03 mg/kg, IT measured after 7 hrs by LC/MS/MS analysis. The class given is ADME, organism-based. The following applies: in vivo, other.
Data set [22] can be described thus: Efflux ratio of permeability in human Caco-2 cells at 10 uM measured after 60 mins by LC-MS/MS analysis. The format is ADME, cell-based. Background: Caco-2 monolayers are a common model of the intestinal barrier.
Data set [23] concerns Rattus norvegicus. Nature of the data set: Antiinflammatory activity against LPS-induced Sprague-Dawley rat inflammatory model assessed as inhibition of neutrophil cells release in BALF at 0.3 mg/kg, IT incubated for 9 hrs followed by LPS-stimulation relative to control. The class given is functional.
Data set [24] can be described thus: Drug concentration in Sprague-Dawley rat lung homogenate at 0.3 mg/kg, IT measured after 24 hrs by LC/MS/MS analysis. The format is ADME, organism-based. As to conditions: read-out: Ct.
The nature of data set [25]: Cmax in Sprague-Dawley rat lung homogenate at 0.3 mg/kg, IT measured after 0.8 hrs by LC/MS/MS analysis. The class given is ADME, organism-based. Set-up: time 0.8 hrs, dose 0.3 mg/kg, route it.
A short description of data set [26]: Cmax in Sprague-Dawley rat plasma at 0.3 mg/kg, IT measured after 0.8 hrs by LC/MS/MS analysis. The format is ADME, organism-based. More on the design: time 0.8 hrs, dose 0.3 mg/kg, route it.
Data set [27] has as its system Rattus norvegicus. The data set is described as follows: Antiinflammatory activity against LPS-induced Sprague-Dawley rat inflammatory model assessed as inhibition of neutrophil cells release in BALF at 0.1 mg/kg, IT preincubated for 2 hrs followed by LPS-stimulation and measured after 4 hrs relative to control. Set-up: scale not given: the % may be the effect or the level left. The following applies: time 6 hrs. The class given is functional.

The subject of data set [28] is Rattus norvegicus. Nature of the data set: Antiinflammatory activity against LPS-induced Sprague-Dawley rat inflammatory model assessed as inhibition of neutrophil cells release in BALF at 0.3 mg/kg, IT preincubated for 2 hrs followed by LPS-stimulation and measured after 4 hrs relative to control. The class given is functional. The following applies: time 6 hrs. More on the design: scale not given: the % may be the effect or the level left.

pIC50: −log10 of the molar value. Values after ≈ are worked out from the molar mass of the structure shown.

The term Cmax denotes the highest concentration seen after dosing. In general, inhibition in vivo refers to the drop in the measured response relative to a control, in per cent. Usually pIC50 stands for −log10 of the IC50, conventionally taken in molar units. Usually solubility stands for the concentration that dissolves in the medium under given conditions. Broadly, the efflux ratio is the permeability from basolateral to apical divided by that in the opposite direction, in the common usage.

T1 sequence (Q16539 whole entry): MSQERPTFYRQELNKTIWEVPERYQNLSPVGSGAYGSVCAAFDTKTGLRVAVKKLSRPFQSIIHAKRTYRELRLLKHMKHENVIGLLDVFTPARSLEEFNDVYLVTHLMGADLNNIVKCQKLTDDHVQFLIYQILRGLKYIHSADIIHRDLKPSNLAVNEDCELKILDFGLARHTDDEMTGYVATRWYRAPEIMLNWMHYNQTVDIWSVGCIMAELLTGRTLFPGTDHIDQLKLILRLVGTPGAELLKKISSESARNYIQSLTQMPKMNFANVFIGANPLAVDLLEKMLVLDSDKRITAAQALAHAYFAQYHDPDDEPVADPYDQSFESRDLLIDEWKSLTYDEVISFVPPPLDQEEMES

With `Cc1ccc(-n2nc(C(C)(C)C)cc2NC(=O)N[C@H]2CC[C@@H](Oc3ccc4nnc(C(C)C)n4c3)c3ccccc32)cc1`, the fraction unbound at 4 h, 10 µM in data set [1] was 0.004; in [9], less than 0.001; in data set [15], 0.001. Besides, the T1/2 in [2] is more than 16 h. The half-life in data set [3] was more than 24 h. For the same compound, the results for the Cmax in [4] and in data set [13] were 1080 nM and 90 nM, respectively. Moreover, the inhibition in vivo at 1 mg/kg is 50% in [5] and -3% in data set [18]. In addition, the Drug uptake in [6] came out at 9.6%; in [21], 8.4%. In addition, the pIC50 in data set [7] was 9.70; in data set [10] it was 10.00; in data set [11] it was less than 5.30; in data set [12], 9.70; in data set [16], 6.79. Also, the Ratio in data set [8] turned out to be 149. Moreover, in [14], the concentration in solution (solubility at 0.5 h) was 10 µg/mL (≈ 17.3 µM). Also, the concentration at 24 h in data set [17] was determined as 29800 nM. Moreover, the half-life at 1 µM in data set [19] was less than 0.167 h. For the same compound, the Papp A→B at 1 h, 10 µM in [20] turned out to be 2.8 ×10⁻⁶ cm/s.

Regarding `C[C@@H]1CCC[C@H](C)N1c1nnc2ccc(O[C@@H]3CC[C@H](NC(=O)Nc4cc(C(C)(C)C)nn4-c4cnn(CCN(C)C)c4)c4ccccc43)cn12`, the efflux ratio at 1 h, 10 µM in data set [22] is more than 2.5. Moreover, the fraction unbound at 4 h, 10 µM was 0.002 in [1] and 0.004 in [9]. Besides, the T1/2 in [2] is more than 16 h. The inhibition in vivo at 0.3 mg/kg in data set [23] was found to be 43%. Besides, in data set [24], the concentration at 24 h was determined as 4580 nM. For the same compound, the Drug uptake in [6] turned out to be 5.4%; in data set [21], 10%. For the same compound, the figures for the peak concentration (Cmax) in [25] and in data set [26] were 6360 nM and 30 nM, respectively. Moreover, the pIC50 was 10.00 in data set [7]; 9.30 in data set [10]; less than 5.00 in data set [11]; 10.30 in data set [12]; 6.09 in [16]. In addition, the Ratio in [8] stood at 183. Further, the concentration in solution in data set [14] (solubility at 0.5 h) came to 620 µg/mL (≈ 893 µM). The Papp A→B at 1 h, 10 µM in data set [20] turned out to be 1.9 ×10⁻⁶ cm/s.

As for `C[C@H]1CCCCN1c1nnc2ccc(O[C@@H]3CC[C@H](NC(=O)Nc4cc(C(C)(C)C)nn4-c4cnn(CCN(C)C)c4)c4ccccc43)cn12.Cl`, the results for the Activity in data set [27] and in data set [28] were 55% and 49%, respectively.

Values taken from ChEMBL document CHEMBL5154908, “Design, Synthesis, and Biological Characterization of Inhaled p38α/β MAPK Inhibitors for the Treatment of Lung Inflammatory Diseases” (J Med Chem, 2022).
